In the supplement of paper PMC11451515:

Assays:
Conditions in all cases: 48 h
SEM cells [1] = test: cell viability relative to DMSO control; higher = less cytotoxic
How it was run: (§1)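 Library compounds in DMSO were pin-dosed in an 11-point threefold series (47 μM to 0.79 nM) onto leukemia cells in 1536-well plates (5 μl). Plates held 500 cells/well of NOMO1 or SEM or 1000 cells/well of P12-Ichikawa, each adapted for at least four passages in each medium. Luminescence was read with CellTiter-Glo One after 48 h at 37°C. Viability means the per-plate percentage relative to DMSO wells, using cell-free wells as background.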

P12-Ichikawa [2] = test: AUC of viability dose-response curve (% viability x log10 dose units); higher = less sensitive
How it was run: (§2)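 Library compounds in DMSO were applied for 48 h at 37°C at 11 threefold doses (47 μM to 0.79 nM) to medium-adapted leukemia cells in 1536-well plates holding 500 or 1000 cells/well. Luminescence from CellTiter-Glo One was normalised plate by plate against DMSO and cell-free wells. Area under the curve came from trapezoidal integration of a log-logistic fit, after scaling curves that rose above full viability and discarding those that failed quality control. The fit had four parameters and used log10 doses.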

NOMO1 [3] = test: as above
How it was run: as §2

SEM cells [4] = test: as above
How it was run: as §2

P12-Ichikawa [5] = test: cell viability relative to DMSO control; higher = less cytotoxic
How it was run: as §1

NOMO1 [6] = test: as above
How it was run: as §1

CC(=O)C1=C(O)C2(C)C(=CC1=O)Oc1c(C(C)=O)c(O)c(C)c(O)c12 (stereo not drawn)
cell viability [%], SEM cells [1]
Conditions | HPLM + 10% dialyzed FBS | RPMI 5 mM glucose + 10% FBS
0.000781 µM | 83.1 | 99.1
0.00234 µM | 120 | 145
0.00702 µM | 123 | 123
0.0211 µM | 123 | 129
0.0632 µM | 124 | 128
0.19 µM | 133 | 152
0.569 µM | 118 | 153
1.71 µM | 149 | 124
5.12 µM | 133 | 136
15.4 µM | 149 | 133
46.1 µM | 124 | 130

AUC of viability dose-response curve
Conditions | NOMO1 [3] | P12-Ichikawa [2] | SEM cells [4]
HPLM + 10% dialyzed FBS | 328 | 347 | 459
RPMI 5 mM glucose + 10% FBS | 305 | 342 | 452
RPMI 5 mM glucose + 10% dialyzed FBS | 321 | 375 | 448

Nc1nc2ccc(OC(F)(F)F)cc2s1
cell viability [%], SEM cells [1]
Conditions | HPLM + 10% dialyzed FBS | RPMI 5 mM glucose + 10% dialyzed FBS
0.000781 µM | 137 | 127
0.00234 µM | 119 | 123
0.00702 µM | 120 | 125
0.0211 µM | 133 | 131
0.0632 µM | 134 | 119
0.19 µM | 127 | 129
0.569 µM | 131 | 147
1.71 µM | 131 | 123
5.12 µM | 130 | 130
15.4 µM | 114 | 118
46.1 µM | 78.3 | 64

AUC of viability dose-response curve
Conditions | NOMO1 [3] | P12-Ichikawa [2] | SEM cells [4]
HPLM + 10% dialyzed FBS | 453 | 462 | 462
RPMI 5 mM glucose + 10% FBS | 455 | 461 | 461
RPMI 5 mM glucose + 10% dialyzed FBS | 455 | 466 | 461

C[C@H]1[C@H](O)O[C@@H]2O[C@@]3(C)CC[C@H]4[C@H](C)CC[C@@H]1[C@@]24OO3
cell viability [%]
Conditions | NOMO1 [6] | P12-Ichikawa [5] | SEM cells [1]
HPLM + 10% dialyzed FBS, 0.000781 µM | 86 | 91.4 | 86.7
HPLM + 10% dialyzed FBS, 0.00234 µM | 97.3 | 95 | 82.3
HPLM + 10% dialyzed FBS, 0.00702 µM | 81 | 99.8 | 90.2
HPLM + 10% dialyzed FBS, 0.0211 µM | 92.6 | 98.6 | 92.7
HPLM + 10% dialyzed FBS, 0.0632 µM | 89.9 | 91.4 | 95.8
HPLM + 10% dialyzed FBS, 0.19 µM | 96 | 97.9 | 109
HPLM + 10% dialyzed FBS, 0.569 µM | 84.4 | 101 | 105
HPLM + 10% dialyzed FBS, 1.71 µM | 58.1 | 87.6 | 98.3
HPLM + 10% dialyzed FBS, 5.12 µM | 13.4 | 54.7 | 41.5
HPLM + 10% dialyzed FBS, 15.4 µM | 9.81 | 29.4 | 22.4
HPLM + 10% dialyzed FBS, 46.1 µM | 15.4 | 22.5 | 17.9
RPMI 5 mM glucose + 10% FBS, 0.000781 µM | 80.2 | 90.1 | 82.3
RPMI 5 mM glucose + 10% FBS, 0.00234 µM | 80.5 | 92.9 | 93
RPMI 5 mM glucose + 10% FBS, 0.00702 µM | 93.2 | 83.4 | 90.8
RPMI 5 mM glucose + 10% FBS, 0.0211 µM | 97.2 | 94 | 89.3
RPMI 5 mM glucose + 10% FBS, 0.0632 µM | 91.9 | 89.9 | 96.9
RPMI 5 mM glucose + 10% FBS, 0.19 µM | 92.2 | 91.2 | 94.8
RPMI 5 mM glucose + 10% FBS, 0.569 µM | 88 | 87.9 | 93.1
RPMI 5 mM glucose + 10% FBS, 1.71 µM | 56.3 | 70.4 | 74.5
RPMI 5 mM glucose + 10% FBS, 5.12 µM | 14.9 | 33.9 | 47.1
RPMI 5 mM glucose + 10% FBS, 15.4 µM | 7.4 | 16.8 | 10.1
RPMI 5 mM glucose + 10% FBS, 46.1 µM | 8.31 | 14.6 | 5.91
RPMI 5 mM glucose + 10% dialyzed FBS, 0.000781 µM | 99.8 | 82.7 | 74.7
RPMI 5 mM glucose + 10% dialyzed FBS, 0.00234 µM | 96 | 90.6 | 82.1
RPMI 5 mM glucose + 10% dialyzed FBS, 0.00702 µM | 92 | 87.1 | 89
RPMI 5 mM glucose + 10% dialyzed FBS, 0.0211 µM | 85.7 | 87.7 | 82.8
RPMI 5 mM glucose + 10% dialyzed FBS, 0.0632 µM | 89 | 87.2 | 76
RPMI 5 mM glucose + 10% dialyzed FBS, 0.19 µM | 104 | 87 | 111
RPMI 5 mM glucose + 10% dialyzed FBS, 0.569 µM | 93.8 | 84 | 89.8
RPMI 5 mM glucose + 10% dialyzed FBS, 1.71 µM | 64.4 | 61.6 | 87.1
RPMI 5 mM glucose + 10% dialyzed FBS, 5.12 µM | 17.5 | 36.5 | 17.6
RPMI 5 mM glucose + 10% dialyzed FBS, 15.4 µM | 12.2 | 26.2 | 8.87
RPMI 5 mM glucose + 10% dialyzed FBS, 46.1 µM | 15.6 | 24.3 | 8.68

AUC of viability dose-response curve
Conditions | NOMO1 [3] | P12-Ichikawa [2] | SEM cells [4]
HPLM + 10% dialyzed FBS | 321 | 386 | 374
RPMI 5 mM glucose + 10% FBS | 316 | 340 | 348
RPMI 5 mM glucose + 10% dialyzed FBS | 341 | 333 | 324

CCCNCC(O)COc1ccccc1C(=O)CCc1ccccc1 (stereo not drawn)
cell viability [%]
Conditions | NOMO1 [6] | P12-Ichikawa [5] | SEM cells [1]
HPLM + 10% dialyzed FBS, 0.000781 µM | 82.6 | 101 | 86.5
HPLM + 10% dialyzed FBS, 0.00234 µM | 117 | 98.9 | 86.5
HPLM + 10% dialyzed FBS, 0.00702 µM | 113 | 107 | 117
HPLM + 10% dialyzed FBS, 0.0211 µM | 106 | 103 | 93.3
HPLM + 10% dialyzed FBS, 0.0632 µM | 121 | 111 | 98.7
HPLM + 10% dialyzed FBS, 0.19 µM | 120 | 106 | 54.2
HPLM + 10% dialyzed FBS, 0.569 µM | 123 | 114 | 105
HPLM + 10% dialyzed FBS, 1.71 µM | 112 | 112 | 112
HPLM + 10% dialyzed FBS, 5.12 µM | 124 | 118 | 117
HPLM + 10% dialyzed FBS, 15.4 µM | 114 | 114 | 108
HPLM + 10% dialyzed FBS, 46.1 µM | 96.9 | 115 | 99.6
RPMI 5 mM glucose + 10% FBS, 0.000781 µM | 23.6 | 112 | 98.8
RPMI 5 mM glucose + 10% FBS, 0.00234 µM | 106 | 105 | 95.1
RPMI 5 mM glucose + 10% FBS, 0.00702 µM | 106 | 110 | 98.1
RPMI 5 mM glucose + 10% FBS, 0.0211 µM | 117 | 116 | 104
RPMI 5 mM glucose + 10% FBS, 0.0632 µM | 111 | 114 | 107
RPMI 5 mM glucose + 10% FBS, 0.19 µM | 109 | 108 | 60.4
RPMI 5 mM glucose + 10% FBS, 0.569 µM | 111 | 113 | 125
RPMI 5 mM glucose + 10% FBS, 1.71 µM | 122 | 115 | 109
RPMI 5 mM glucose + 10% FBS, 5.12 µM | 124 | 123 | 124
RPMI 5 mM glucose + 10% FBS, 15.4 µM | 111 | 128 | 116
RPMI 5 mM glucose + 10% FBS, 46.1 µM | 107 | 110 | 97.2
RPMI 5 mM glucose + 10% dialyzed FBS, 0.000781 µM | 108 | 93.4 | 101
RPMI 5 mM glucose + 10% dialyzed FBS, 0.00234 µM | 98.5 | 103 | 85.1
RPMI 5 mM glucose + 10% dialyzed FBS, 0.00702 µM | 124 | 98.1 | 109
RPMI 5 mM glucose + 10% dialyzed FBS, 0.0211 µM | 122 | 103 | 90.5
RPMI 5 mM glucose + 10% dialyzed FBS, 0.0632 µM | 124 | 102 | 102
RPMI 5 mM glucose + 10% dialyzed FBS, 0.19 µM | 111 | 113 | 43.6
RPMI 5 mM glucose + 10% dialyzed FBS, 0.569 µM | 111 | 114 | 118
RPMI 5 mM glucose + 10% dialyzed FBS, 1.71 µM | 121 | 113 | 104
RPMI 5 mM glucose + 10% dialyzed FBS, 5.12 µM | 118 | 112 | 116
RPMI 5 mM glucose + 10% dialyzed FBS, 15.4 µM | 119 | 106 | 115
RPMI 5 mM glucose + 10% dialyzed FBS, 46.1 µM | 103 | 98.4 | 110

AUC of viability dose-response curve
Conditions | NOMO1 [3] | P12-Ichikawa [2] | SEM cells [4]
HPLM + 10% dialyzed FBS | 457 | 450 | 438
RPMI 5 mM glucose + 10% FBS | 391 | 452 | 444
RPMI 5 mM glucose + 10% dialyzed FBS | 473 | 458 | 432
